Results on seven molecules are retold here after ChEMBL document CHEMBL3286137, “Design, synthesis and structure-activity relationships of novel 4-phenoxyquinoline derivatives containing pyridazinone moiety as potential antitumor agents” (Eur J Med Chem, 2014).

As usually defined, the IC50 is the concentration at which inhibition is half-maximal.

The target in assay [1] is T1, Amine oxidase [copper-containing] 3 (Homo sapiens, UniProt Q16853).
T1 sequence (Q16853 whole entry): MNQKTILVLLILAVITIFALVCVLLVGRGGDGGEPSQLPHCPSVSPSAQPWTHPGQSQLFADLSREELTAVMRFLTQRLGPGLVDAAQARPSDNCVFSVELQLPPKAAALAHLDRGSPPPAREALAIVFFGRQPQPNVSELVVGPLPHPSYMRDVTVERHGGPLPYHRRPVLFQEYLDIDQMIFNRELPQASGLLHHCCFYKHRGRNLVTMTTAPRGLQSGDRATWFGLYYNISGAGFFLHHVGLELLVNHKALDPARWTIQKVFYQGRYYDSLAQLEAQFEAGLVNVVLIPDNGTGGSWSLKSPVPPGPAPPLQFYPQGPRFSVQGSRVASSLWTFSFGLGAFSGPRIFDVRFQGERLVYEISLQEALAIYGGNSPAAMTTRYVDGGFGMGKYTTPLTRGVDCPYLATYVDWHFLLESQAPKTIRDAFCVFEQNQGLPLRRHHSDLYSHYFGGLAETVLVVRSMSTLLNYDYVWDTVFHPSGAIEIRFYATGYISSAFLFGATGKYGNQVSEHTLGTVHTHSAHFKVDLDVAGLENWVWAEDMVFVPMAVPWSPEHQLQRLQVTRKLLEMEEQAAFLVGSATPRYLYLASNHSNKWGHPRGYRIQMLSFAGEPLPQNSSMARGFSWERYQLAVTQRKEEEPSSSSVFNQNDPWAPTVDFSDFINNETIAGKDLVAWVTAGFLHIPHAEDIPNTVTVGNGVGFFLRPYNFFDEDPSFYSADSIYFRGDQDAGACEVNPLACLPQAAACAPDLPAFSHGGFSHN
Kind of assay: Inhibition of human VAP1.

Assay [2] is described as follows: Cytotoxicity against human U87MG cells assessed as inhibition of cell growth after 72 hrs by MTT assay. The class given is functional, cell-based, U-87MG ATCC. The following applies: U-87 MG. In general terms: Tetrazolium assays rely on reduction of a dye to a coloured formazan, in cell work by metabolically active cells.
Another assay has as its system A549. Kind of assay: cells. The settings on record: Homo sapiens, A549, 72 h.
Assay [3] in a line: cells. The following applies: Homo sapiens, NCI-H460, 72 h.
Assay [4] has as its system HT-29. Kind of assay: cells. The following applies: Homo sapiens, HT-29, 72 h.
The nature of assay [5]: cells. The settings on record: Homo sapiens, MKN-45, 72 h.
The target in assay [6] is Platelet-derived growth factor receptor beta (Homo sapiens, UniProt P09619). The assay can be described thus: Inhibition of PDGFR beta (unknown origin).
Assay [7] is described as follows: Ratio of foretinib IC50 to compound IC50 for human H460 cells. The class given is functional.
Assay [8] has as its target T2, Receptor-type tyrosine-protein kinase FLT3 (Homo sapiens, UniProt P36888).
T2 sequence (P36888 whole entry): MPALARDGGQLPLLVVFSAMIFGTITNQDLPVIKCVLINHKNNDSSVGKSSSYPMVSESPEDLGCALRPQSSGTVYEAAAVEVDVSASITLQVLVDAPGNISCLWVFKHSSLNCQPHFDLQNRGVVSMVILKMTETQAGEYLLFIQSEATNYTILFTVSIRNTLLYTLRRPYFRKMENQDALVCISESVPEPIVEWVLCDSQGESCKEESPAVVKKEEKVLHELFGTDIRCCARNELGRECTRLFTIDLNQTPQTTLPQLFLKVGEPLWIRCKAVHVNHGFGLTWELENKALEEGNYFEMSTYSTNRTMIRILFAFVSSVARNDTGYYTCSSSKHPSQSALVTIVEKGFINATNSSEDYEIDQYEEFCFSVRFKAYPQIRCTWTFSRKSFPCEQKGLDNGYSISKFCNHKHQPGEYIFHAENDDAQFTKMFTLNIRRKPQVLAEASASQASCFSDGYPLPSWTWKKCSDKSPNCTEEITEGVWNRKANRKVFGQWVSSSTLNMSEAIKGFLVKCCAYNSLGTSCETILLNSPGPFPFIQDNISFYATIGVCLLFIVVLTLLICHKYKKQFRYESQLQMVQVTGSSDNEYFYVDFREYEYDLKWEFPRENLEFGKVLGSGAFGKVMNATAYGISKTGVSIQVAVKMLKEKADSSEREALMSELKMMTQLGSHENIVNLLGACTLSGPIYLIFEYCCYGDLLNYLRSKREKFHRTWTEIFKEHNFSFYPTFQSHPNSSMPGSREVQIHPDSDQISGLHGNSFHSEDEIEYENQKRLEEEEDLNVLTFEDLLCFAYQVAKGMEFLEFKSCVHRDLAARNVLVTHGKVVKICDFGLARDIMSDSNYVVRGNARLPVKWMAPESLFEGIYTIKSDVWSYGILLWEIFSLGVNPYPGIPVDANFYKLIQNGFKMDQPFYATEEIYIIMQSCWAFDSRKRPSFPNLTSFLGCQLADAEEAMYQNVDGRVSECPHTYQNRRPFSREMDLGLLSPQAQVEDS
The assay can be described thus: Inhibition of Flt3 (unknown origin).

Assay [9] concerns the target Vascular endothelial growth factor receptor 2 (Homo sapiens, UniProt P35968). Kind of assay: Inhibition of KDR (unknown origin).
Assay [10] concerns HT-29. The assay can be described thus: Ratio of foretinib IC50 to compound IC50 for human HT-29 cells. The class given is functional.
Assay [11] concerns the target Mast/stem cell growth factor receptor Kit (Homo sapiens, UniProt P10721). The assay can be described thus: Inhibition of c-Kit (unknown origin).
The target of assay [12] is Epidermal growth factor receptor (Homo sapiens, UniProt P00533). Kind of assay: Inhibition of EGFR (unknown origin).
For assay [13], the target named is Hepatocyte growth factor receptor (Homo sapiens, UniProt P08581). The assay can be described thus: Inhibition of c-Met (unknown origin) using poly (Glu,Tyr)4:1 as substrate by homogeneous time-resolved fluorescence assay.

`O=c1ccc(=O)[nH][nH]1` registered an IC50 in assay [1] of 0.02 µM.

Regarding `COc1cc2c(Oc3ccc(NC(=O)c4nn(-c5ccccc5C)c(=O)cc4C)cc3F)ccnc2cc1OCCCN1CCN(C)CC1`, the IC50 in [2] was determined as 3.72 µM; with A549, 2.83 µM; in the assay “cells [3]”, 3.42 µM; with HT-29 [4] it was 3.79 µM; in the assay “cells [5]” it was 1.63 µM.

Take `COc1cc2c(Oc3ccc(NC(=O)c4nn(-c5ccccc5)c(=O)cc4C)cc3F)ccnc2cc1OCCCN1CCCC1`: the concentration for half-maximal inhibition (IC50) in [2] amounted to 1.1 µM; with A549, 0.37 µM; in the assay “cells [3]”, 0.46 µM; in the assay with HT-29 [4] it was 0.22 µM; in the assay “cells [5]”, 0.12 µM.

Take `COc1cc2c(Oc3ccc(NC(=O)c4nn(-c5ccccc5C(F)(F)F)c(=O)cc4C)cc3F)ccnc2cc1OCCCN1CCCC1`: the IC50 in assay [2] was found to be 1.01 µM; in the assay with A549, 0.13 µM; in “cells [3]” it was 0.21 µM; in the assay with HT-29 [4], 0.14 µM; in “cells [5]” it was 0.1 µM.

`COc1ccc(-n2nc(C(=O)Nc3ccc(Oc4ccnc5cc(OCCCN6CCCC6)c(OC)cc45)c(F)c3)c(C)cc2=O)cc1`: the IC50 in assay [2] is 2.96 µM; in the assay on A549 it was 2.77 µM; in “cells [3]” it was 3.61 µM; in the assay on HT-29 [4] it was 3.3 µM; in the assay “cells [5]” it was 1.29 µM.

Regarding `COc1cc2c(Oc3ccc(NC(=O)c4nn(-c5ccccc5OC(F)(F)F)c(=O)cc4C)cc3F)ccnc2cc1OCCCN1CCC(C)CC1`, the IC50 in [2] was 0.8 µM; in the assay on A549 it was 0.09 µM; in the assay “cells [3]”, 0.29 µM; in the assay on HT-29 [4], 0.25 µM; in the assay “cells [5]” it was 0.07 µM.

As to `COc1cc2c(Oc3ccc(NC(=O)c4nn(-c5ccccc5C(F)(F)F)c(=O)cc4C)cc3F)ccnc2cc1OCCCN1CCOCC1`, the IC50 in assay [2] is 1.06 µM; in assay [6], 0.0923 µM; in the assay on A549, 0.05 µM; in “cells [3]” it was 0.13 µM; in the assay on HT-29 [4], 0.1 µM; in assay [8], 0.00928 µM. Besides, the IC50 in assay [9] was 0.425 µM; in “cells [5]” it was 0.03 µM; in assay [11], 0.00432 µM; in assay [12] it was greater than 10 µM; in [13], 0.00215 µM. The “Ratio IC50” value was 1.5 in assay [7] and 1.9 in the assay with HT-29 [10].
